The record followed here is patent US20050282743A1, “Molecular interactions in cells” (Arbor Vita Corporation, priority 2001, published 2005).

Ends that are not written are not given here. Peptide text beside a SMILES is read from it. * marks the point of attachment. Biotin = O=C1N[C@H]2[C@H](CS[C@H]2CCCCC(=O)*)N1

Assay type in all cases: binding
Experiment [1] deals with T1, PDZ protein (GST-PDZ fusion) (Homo sapiens, UniProt Q9BXL6).
T1 construct: made in house; host or cells: E. coli (DH5alpha, BL21 or JM109)
T1 sequence (Q9BXL6 1-1004): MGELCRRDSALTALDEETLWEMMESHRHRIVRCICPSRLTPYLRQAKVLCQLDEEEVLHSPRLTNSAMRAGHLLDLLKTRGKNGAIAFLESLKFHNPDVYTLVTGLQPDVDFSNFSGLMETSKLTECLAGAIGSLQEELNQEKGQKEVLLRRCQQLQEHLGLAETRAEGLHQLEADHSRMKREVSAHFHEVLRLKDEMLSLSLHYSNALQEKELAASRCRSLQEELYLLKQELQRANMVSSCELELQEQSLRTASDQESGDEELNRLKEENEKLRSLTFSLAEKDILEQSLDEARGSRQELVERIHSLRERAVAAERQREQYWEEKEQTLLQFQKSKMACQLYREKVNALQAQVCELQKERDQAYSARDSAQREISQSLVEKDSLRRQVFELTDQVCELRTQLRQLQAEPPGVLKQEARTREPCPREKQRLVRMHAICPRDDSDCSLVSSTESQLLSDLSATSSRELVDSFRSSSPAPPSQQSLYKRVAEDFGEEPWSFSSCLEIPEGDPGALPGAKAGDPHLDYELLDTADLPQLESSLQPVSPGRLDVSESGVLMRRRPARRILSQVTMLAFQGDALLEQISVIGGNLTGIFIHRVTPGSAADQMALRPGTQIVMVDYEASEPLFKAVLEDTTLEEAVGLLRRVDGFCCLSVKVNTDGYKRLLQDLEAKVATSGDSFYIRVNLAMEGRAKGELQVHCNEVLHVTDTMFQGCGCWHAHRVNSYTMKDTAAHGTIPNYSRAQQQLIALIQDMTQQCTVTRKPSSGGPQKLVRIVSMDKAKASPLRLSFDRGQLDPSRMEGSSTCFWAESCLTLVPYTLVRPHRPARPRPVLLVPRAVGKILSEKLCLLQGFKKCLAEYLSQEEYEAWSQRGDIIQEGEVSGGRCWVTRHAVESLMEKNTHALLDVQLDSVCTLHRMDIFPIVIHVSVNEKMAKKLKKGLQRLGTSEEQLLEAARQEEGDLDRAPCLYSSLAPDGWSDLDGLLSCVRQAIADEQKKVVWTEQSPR
Kind of experiment: G' assay (10 uM PL peptide), results of TABLE 7 and TABLE 12. The note with it: PDZ CARD14, PDZ Domain 1. Summed up: (§1)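 Biotinylated PL peptides at 10 uM (vs 20 uM in G^0 assay) bound to GST-PDZ fusions; PDZ protein at 5 ug/ml unless another concentration listed. Bound peptide read as A450 nm, classified 0–5 (0 = A450 0; 5 = A450 >4 repeated).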

Experiment [2] deals with T2, PDZ protein (GST-PDZ fusion) (Rattus norvegicus, UniProt Q9JLU4).
T2 construct: made in house; host or cells: E. coli (DH5alpha, BL21 or JM109)
Described as above. The note with it: PDZ rat SHANK 3, PDZ Domain 1. The method in brief:
as §1

In a further experiment the target is T3, NeDLG (PDZ Domain 1, 2) (Homo sapiens, UniProt Q92796).
T3 construct: When more than one PDZ domain was cloned, the DNA portion cloned represents the PDZ domains and the cDNA portion located between individual domains; made in house; host or cells: E. coli (DH5alpha, BL21 or JM109)
T3 sequence (Q92796 129-315 limits assumed): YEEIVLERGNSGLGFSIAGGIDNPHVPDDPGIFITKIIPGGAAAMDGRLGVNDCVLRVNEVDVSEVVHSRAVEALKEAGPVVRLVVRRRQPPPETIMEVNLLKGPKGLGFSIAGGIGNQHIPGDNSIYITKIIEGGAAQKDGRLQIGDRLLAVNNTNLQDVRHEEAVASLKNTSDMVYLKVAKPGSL
Put plainly: G' assay, TABLE 12. The note with it: A450 nm class of biotinylated PL peptide bound; 0 in conc columns = peptide 10 uM, protein 5 ug/ml. Summed up:
(§2)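 PL peptide binding to PDZ domain protein, peptide at 10 uM; protein at 5 ug/ml unless another concentration is listed for Kd determination. Bound peptide read at A450 nm and binned into classes 0–5.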

The target of a further experiment is T4, DLG1 (PDZ Domain 1, 2) (Homo sapiens, UniProt Q12959).
T4 construct: made in house; host or cells: E. coli (DH5alpha, BL21 or JM109)
Kind of experiment: G' assay, TABLE 12. Particulars: A450 nm class of biotinylated PL peptide bound; 0 in conc columns = peptide 10 uM, protein 5 ug/ml. The method in brief: as §2

Experiment [3] deals with T5, PDZ protein (GST-PDZ fusion) (Homo sapiens, UniProt Q9NRD5).
T5 construct: made in house; host or cells: E. coli (DH5alpha, BL21 or JM109)
Put plainly: G' assay (10 uM PL peptide), results of TABLE 7 and TABLE 12. Particulars: PDZ PICK1, PDZ Domain 1. The method in brief:
as §1

In experiment [4] the target is T6, PDZ protein (GST-PDZ fusion) (Homo sapiens, UniProt O15021).
T6 construct: made in house; host or cells: E. coli (DH5alpha, BL21 or JM109)
The description is as above. The note with it: PDZ KIAA0303, PDZ Domain 1. Summed up: as §1

T4 sequence (Q12959 213-413 limits assumed): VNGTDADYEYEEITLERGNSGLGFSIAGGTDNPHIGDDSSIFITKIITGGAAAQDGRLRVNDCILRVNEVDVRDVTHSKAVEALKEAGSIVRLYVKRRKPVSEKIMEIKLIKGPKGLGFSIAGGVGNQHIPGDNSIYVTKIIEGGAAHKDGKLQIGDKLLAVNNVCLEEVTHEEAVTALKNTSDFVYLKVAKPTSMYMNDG
T6 sequence (O15021 whole entry, the tested form may be a part): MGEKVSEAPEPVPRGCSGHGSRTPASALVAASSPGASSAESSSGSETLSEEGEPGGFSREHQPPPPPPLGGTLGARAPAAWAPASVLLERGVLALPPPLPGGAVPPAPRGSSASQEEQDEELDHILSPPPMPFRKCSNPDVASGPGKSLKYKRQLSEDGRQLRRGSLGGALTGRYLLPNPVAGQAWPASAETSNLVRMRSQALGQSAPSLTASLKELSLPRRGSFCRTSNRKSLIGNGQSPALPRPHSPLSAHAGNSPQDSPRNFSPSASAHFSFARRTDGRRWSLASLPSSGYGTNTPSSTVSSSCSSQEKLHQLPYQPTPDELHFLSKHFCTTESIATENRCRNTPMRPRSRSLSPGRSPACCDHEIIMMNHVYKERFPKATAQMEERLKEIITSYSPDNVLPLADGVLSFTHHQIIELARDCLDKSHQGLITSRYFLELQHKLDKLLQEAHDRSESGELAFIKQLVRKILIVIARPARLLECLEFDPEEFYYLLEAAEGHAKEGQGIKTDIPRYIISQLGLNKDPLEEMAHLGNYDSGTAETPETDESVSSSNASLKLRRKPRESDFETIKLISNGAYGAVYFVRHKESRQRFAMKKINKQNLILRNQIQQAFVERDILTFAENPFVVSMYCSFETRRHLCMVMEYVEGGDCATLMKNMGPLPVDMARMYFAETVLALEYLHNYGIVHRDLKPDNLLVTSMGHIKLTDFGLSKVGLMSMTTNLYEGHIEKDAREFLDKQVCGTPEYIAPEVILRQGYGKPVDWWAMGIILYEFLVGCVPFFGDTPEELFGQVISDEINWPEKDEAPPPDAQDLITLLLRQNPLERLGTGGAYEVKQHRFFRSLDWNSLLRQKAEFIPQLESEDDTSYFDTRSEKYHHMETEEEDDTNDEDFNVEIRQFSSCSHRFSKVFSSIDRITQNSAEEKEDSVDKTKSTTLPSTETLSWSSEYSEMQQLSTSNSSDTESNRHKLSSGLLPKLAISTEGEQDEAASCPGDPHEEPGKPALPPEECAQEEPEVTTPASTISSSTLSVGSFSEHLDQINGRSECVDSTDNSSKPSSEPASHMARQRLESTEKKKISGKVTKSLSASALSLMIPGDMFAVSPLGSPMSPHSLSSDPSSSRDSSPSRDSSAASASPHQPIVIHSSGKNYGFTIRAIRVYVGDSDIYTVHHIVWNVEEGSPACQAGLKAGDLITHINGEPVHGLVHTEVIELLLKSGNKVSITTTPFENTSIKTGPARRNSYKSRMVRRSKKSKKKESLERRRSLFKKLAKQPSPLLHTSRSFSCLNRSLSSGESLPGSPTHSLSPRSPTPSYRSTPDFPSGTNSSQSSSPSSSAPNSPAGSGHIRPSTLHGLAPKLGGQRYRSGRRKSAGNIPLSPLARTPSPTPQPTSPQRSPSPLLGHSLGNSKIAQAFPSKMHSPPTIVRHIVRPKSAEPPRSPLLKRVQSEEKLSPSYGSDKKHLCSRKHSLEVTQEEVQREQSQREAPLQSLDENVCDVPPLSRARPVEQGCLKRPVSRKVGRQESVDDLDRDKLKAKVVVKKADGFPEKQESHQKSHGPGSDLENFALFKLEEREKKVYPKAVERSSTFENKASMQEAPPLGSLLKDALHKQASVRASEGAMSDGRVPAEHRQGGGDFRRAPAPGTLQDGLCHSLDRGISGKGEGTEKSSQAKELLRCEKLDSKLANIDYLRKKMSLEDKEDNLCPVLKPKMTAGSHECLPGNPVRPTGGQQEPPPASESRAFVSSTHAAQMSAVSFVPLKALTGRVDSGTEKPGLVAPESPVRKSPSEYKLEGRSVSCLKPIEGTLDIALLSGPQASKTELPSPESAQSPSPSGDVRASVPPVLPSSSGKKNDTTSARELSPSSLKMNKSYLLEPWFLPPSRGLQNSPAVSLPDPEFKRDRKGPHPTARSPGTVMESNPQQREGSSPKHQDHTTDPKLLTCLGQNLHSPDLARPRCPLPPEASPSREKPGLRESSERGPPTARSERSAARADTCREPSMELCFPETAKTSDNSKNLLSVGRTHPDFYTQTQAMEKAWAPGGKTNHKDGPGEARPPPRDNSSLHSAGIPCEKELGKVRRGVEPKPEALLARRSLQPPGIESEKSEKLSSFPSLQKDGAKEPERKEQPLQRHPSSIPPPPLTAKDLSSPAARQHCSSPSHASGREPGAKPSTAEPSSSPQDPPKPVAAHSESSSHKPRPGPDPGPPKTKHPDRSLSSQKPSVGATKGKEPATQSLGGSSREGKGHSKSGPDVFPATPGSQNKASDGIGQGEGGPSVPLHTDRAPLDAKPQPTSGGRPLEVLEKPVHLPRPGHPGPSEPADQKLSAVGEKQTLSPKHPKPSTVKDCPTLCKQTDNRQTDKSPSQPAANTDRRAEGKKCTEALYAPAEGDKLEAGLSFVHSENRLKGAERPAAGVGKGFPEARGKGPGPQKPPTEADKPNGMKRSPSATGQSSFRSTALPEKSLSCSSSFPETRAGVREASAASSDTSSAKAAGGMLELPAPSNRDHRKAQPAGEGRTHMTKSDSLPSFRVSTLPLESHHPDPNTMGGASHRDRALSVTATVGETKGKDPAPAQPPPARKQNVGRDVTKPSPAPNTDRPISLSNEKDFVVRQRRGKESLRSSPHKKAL
T5 sequence (Q9NRD5 whole entry, the tested form may be a part): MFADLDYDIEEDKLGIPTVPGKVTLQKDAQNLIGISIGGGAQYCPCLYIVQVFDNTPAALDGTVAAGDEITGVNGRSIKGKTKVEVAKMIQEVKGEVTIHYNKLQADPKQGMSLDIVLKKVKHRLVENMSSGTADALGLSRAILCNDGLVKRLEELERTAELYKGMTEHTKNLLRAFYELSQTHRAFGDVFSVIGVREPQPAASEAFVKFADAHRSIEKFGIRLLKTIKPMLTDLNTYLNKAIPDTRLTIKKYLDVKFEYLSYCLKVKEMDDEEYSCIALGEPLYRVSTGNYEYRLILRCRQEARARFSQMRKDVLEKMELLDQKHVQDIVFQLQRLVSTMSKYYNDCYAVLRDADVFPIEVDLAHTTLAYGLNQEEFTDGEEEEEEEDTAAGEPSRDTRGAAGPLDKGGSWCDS
T2 sequence (Q9JLU4 whole entry, the tested form may be a part): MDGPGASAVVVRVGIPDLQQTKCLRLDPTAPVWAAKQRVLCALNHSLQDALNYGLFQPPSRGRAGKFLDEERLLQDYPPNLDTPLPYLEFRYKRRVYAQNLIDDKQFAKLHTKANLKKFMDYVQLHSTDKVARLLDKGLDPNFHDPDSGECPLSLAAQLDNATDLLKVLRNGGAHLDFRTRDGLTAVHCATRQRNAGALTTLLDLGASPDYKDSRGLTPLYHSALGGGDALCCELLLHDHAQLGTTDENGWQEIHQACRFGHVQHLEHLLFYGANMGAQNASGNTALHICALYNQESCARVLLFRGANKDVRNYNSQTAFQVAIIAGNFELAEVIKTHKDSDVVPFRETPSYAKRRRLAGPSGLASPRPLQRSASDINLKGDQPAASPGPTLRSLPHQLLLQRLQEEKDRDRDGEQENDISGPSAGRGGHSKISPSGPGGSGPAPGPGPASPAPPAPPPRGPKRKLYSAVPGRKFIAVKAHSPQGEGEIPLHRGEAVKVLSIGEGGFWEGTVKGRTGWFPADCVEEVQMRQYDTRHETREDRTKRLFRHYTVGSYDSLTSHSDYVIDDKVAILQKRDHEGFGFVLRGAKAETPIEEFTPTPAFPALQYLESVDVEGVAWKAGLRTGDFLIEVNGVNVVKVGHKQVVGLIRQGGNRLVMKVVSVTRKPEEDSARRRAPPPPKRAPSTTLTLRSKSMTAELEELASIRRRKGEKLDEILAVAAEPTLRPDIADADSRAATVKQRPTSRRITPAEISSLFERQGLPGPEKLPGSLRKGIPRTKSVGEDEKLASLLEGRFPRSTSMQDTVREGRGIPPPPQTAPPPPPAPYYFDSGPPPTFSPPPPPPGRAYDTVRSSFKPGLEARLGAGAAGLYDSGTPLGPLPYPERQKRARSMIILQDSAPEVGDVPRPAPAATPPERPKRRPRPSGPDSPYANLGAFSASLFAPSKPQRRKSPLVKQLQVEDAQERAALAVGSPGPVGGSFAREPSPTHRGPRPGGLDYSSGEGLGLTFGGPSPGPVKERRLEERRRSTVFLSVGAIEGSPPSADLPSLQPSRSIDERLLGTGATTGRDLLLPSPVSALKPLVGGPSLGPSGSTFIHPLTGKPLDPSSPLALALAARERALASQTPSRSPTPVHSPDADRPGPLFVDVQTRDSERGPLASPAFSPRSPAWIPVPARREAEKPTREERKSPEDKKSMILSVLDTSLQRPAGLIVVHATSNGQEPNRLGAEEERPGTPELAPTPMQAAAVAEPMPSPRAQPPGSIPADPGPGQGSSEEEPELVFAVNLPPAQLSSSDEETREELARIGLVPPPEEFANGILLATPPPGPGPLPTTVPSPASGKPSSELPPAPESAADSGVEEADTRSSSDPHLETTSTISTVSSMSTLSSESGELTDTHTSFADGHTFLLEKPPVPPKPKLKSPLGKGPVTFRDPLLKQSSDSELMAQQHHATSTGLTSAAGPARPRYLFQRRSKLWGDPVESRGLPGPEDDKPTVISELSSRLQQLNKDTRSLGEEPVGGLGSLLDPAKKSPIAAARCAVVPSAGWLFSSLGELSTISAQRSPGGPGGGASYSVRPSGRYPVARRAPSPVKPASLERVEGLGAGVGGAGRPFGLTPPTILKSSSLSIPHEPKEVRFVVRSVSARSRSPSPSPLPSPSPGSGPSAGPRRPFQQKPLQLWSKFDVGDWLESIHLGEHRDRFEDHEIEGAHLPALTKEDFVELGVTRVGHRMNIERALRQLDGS

As for “A2AC_HUMAN (Modified) (Biotin-DFRPSFKHILFRRARRGFRQ; not fully specified)”, in experiment [1], the Classification is 5 (A450 nm of 4 more than 2× repeated). As for “PPATPSPRLALPAHHNATRL (Biotin-PPATPSPRLALPAHHNATRL) [Na+/Pi cotransporter 2]”, the Classification in experiment [2] is on record as 4 (A450 nm 3-4). The same measure, in the same setting: to `CC(C)C[C@H](NC(=O)[C@H](CC(=O)O)NC(=O)[C@H](CO)NC(=O)[C@H](CCC(=O)O)NC(=O)CNC(=O)[C@H](Cc1ccc(O)cc1)NC(=O)[C@H](CC(C)C)NC(=O)[C@H](C)NC(=O)[C@H](CO)NC(=O)[C@H](CO)NC(=O)[C@H](Cc1ccccc1)NC(=O)[C@H](C)NC(=O)[C@H](C)NC(=O)[C@H](Cc1ccc(O)cc1)NC(=O)[C@H](CC(=O)O)NC(=O)[C@H](CC(C)C)NC(=O)[C@H](C)NC(=O)CNC(=O)[C@@H]1CCCN1C(=O)[C@@H](NC(=O)CCCC[C@@H]1SC[C@@H]2NC(=O)N[C@@H]21)C(C)C)C(=O)O` [a-actinin 2] (Biotin-VPGALDYAAFSSALYGESDL-OH; C-terminus assumed) belongs 1 (A450 nm 0-1). For `CC[C@H](C)[C@H](NC(=O)[C@H](CC(=O)O)NC(=O)[C@H](CCC(=O)O)NC(=O)[C@H](CCCNC(=N)N)NC(=O)[C@@H](NC(=O)CCCC[C@@H]1SC[C@@H]2NC(=O)N[C@@H]21)[C@@H](C)O)C(=O)N[C@@H](Cc1ccc(O)cc1)C(=O)N[C@H](C(=O)N[C@@H](CC(N)=O)C(=O)N[C@@H](Cc1ccc(O)cc1)C(=O)N1CCC[C@H]1C(=O)N[C@H](C(=O)N[C@@H](Cc1ccccc1)C(=O)N[C@@H](CO)C(=O)N[C@@H](CCCNC(=N)N)C(=O)N[C@@H](CCCNC(=N)N)C(=O)N1CCC[C@H]1C(=O)N[C@@H](CCCCN)C(=O)N[C@H](C(=O)N[C@@H](CCCNC(=N)N)C(=O)N[C@H](C(=O)O)C(C)C)[C@@H](C)O)[C@@H](C)O)C(C)C` [DNAM-1] (Biotin-TREDIYVNYPTFSRRPKTRV-OH; C-terminus assumed), the Classification on NeDLG (PDZ Domain 1, 2) was 2 (A450 nm 1-2); on DLG1 (PDZ Domain 1, 2), 1 (A450 nm 0-1). Turning to “A2AA_HUMAN (modified) (Biotin-HDFRRAFKKILARGDRKRIV; not fully specified)”, the Classification in experiment [1] is reported as 1 (A450 nm 0-1). Turning to `CC[C@H](C)[C@H](NC(=O)[C@H](CCC(=O)O)NC(=O)[C@H](CC(N)=O)NC(=O)[C@H](CCCNC(=N)N)NC(=O)[C@H](Cc1ccccc1)NC(=O)[C@H](CC(N)=O)NC(=O)[C@H](CO)NC(=O)[C@H](CC(N)=O)NC(=O)[C@H](CCC(=O)O)NC(=O)[C@H](CO)NC(=O)[C@H](CC(=O)O)NC(=O)[C@H](CO)NC(=O)[C@@H](NC(=O)[C@@H](NC(=O)[C@H](CC(=O)O)NC(=O)[C@H](CCCCN)NC(=O)CCCC[C@@H]1SC[C@@H]2NC(=O)N[C@@H]21)[C@@H](C)CC)[C@@H](C)O)C(=O)N[C@@H](CCC(N)=O)C(=O)N[C@@H](CO)C(=O)N[C@@H](CC(C)C)C(=O)N[C@H](C(=O)O)C(C)C` [CD95] (Biotin-KDITSDSENSNFRNEIQSLV-OH; C-terminus assumed), the Classification is given as 1 (A450 nm 0-1) at NeDLG (PDZ Domain 1, 2) and 2 (A450 nm 1-2) at DLG1 (PDZ Domain 1, 2). As for `CC(C)C[C@H](NC(=O)[C@H](Cc1c[nH]c2ccccc12)NC(=O)[C@H](Cc1c[nH]cn1)NC(=O)[C@H](CCCNC(=N)N)NC(=O)[C@H](CC(C)C)NC(=O)[C@@H](NC(=O)[C@H](Cc1ccccc1)NC(=O)[C@H](CCC(N)=O)NC(=O)[C@H](CCCNC(=N)N)NC(=O)[C@@H](NC(=O)[C@H](CCC(=O)O)NC(=O)CNC(=O)[C@H](CCCNC(=N)N)NC(=O)[C@H](CC(=O)O)NC(=O)[C@@H](NC(=O)[C@H](CC(C)C)NC(=O)[C@H](CCC(=O)O)NC(=O)[C@H](CCCNC(=N)N)NC(=O)CCCC[C@@H]1SC[C@@H]2NC(=O)N[C@@H]21)C(C)C)C(C)C)[C@@H](C)O)C(=O)N[C@@H](CCCCN)C(=O)N[C@H](C(=O)O)C(C)C` [Dopamine transporter (Na+-dependent)] (Biotin-RELVDRGEVRQFTLRHWLKV-OH; C-terminus assumed), the Classification in experiment [3] is 2 (A450 nm 1-2). In the case of `CC[C@H](C)[C@H](NC(=O)[C@H](CCC(N)=O)NC(=O)CCCC[C@@H]1SC[C@@H]2NC(=O)N[C@@H]21)C(=O)N[C@@H](CO)C(=O)N1CCC[C@H]1C(=O)NCC(=O)NCC(=O)N[C@@H](CC(C)C)C(=O)N[C@@H](CCC(=O)O)C(=O)N1CCC[C@H]1C(=O)N1CCC[C@H]1C(=O)N[C@@H](CO)C(=O)N[C@@H](CCC(=O)O)C(=O)N[C@@H](CCCCN)C(=O)N[C@@H](Cc1c[nH]cn1)C(=O)N[C@@H](Cc1ccccc1)C(=O)N[C@@H](CCCNC(=N)N)C(=O)N[C@@H](CCC(=O)O)C(=O)N[C@H](C(=O)N[C@@H](CCC(=O)O)C(=O)N[C@H](C(=O)O)C(C)C)[C@@H](C)O` [Tax], the Classification on NeDLG (PDZ Domain 1, 2) was 5 (A450 nm of 4 more than 2× repeated); on DLG1 (PDZ Domain 1, 2), 5 (A450 nm of 4 more than 2× repeated). Turning to `CC[C@H](C)[C@H](NC(=O)[C@H](CO)NC(=O)[C@@H](NC(=O)[C@H](Cc1ccccc1)NC(=O)[C@H](CO)NC(=O)CCCC[C@@H]1SC[C@@H]2NC(=O)N[C@@H]21)[C@@H](C)O)C(=O)N[C@@H](CC(C)C)C(=O)N[C@H](C(=O)N[C@@H](CS)C(=O)N[C@@H](Cc1c[nH]cn1)C(=O)N[C@@H](CCC(N)=O)C(=O)N[C@@H](CCCNC(=N)N)C(=O)N[C@@H](CCCNC(=N)N)C(=O)N[C@H](C(=O)N[C@@H](CCC(N)=O)C(=O)N[C@@H](CCCNC(=N)N)C(=O)N[C@@H](CCCCN)C(=O)N[C@@H](CCC(=O)O)C(=O)N[C@H](C(=O)N[C@H](C(=O)N[C@@H](C)C(=O)O)C(C)C)[C@@H](C)O)[C@@H](C)O)[C@@H](C)O` [GluR5-2 (rat)], in experiment [4], the Classification was 1 (A450 nm 0-1). Take “ELLQFCRTPNPALKNGQYWV (Biotin-ELLQFCRTPNPALKNGQYWV)”: in experiment [4], the Classification is 1 (A450 nm 0-1). Turning to `CC[C@H](C)[C@H](NC(=O)[C@H](C)NC(=O)[C@H](CC(C)C)NC(=O)[C@H](Cc1c[nH]c2ccccc12)NC(=O)[C@H](Cc1c[nH]cn1)NC(=O)[C@H](CCC(N)=O)NC(=O)[C@H](CC(C)C)NC(=O)[C@H](CCC(N)=O)NC(=O)[C@H](Cc1ccccc1)NC(=O)[C@H](CCC(N)=O)NC(=O)[C@H](CCCNC(=N)N)NC(=O)[C@@H](NC(=O)[C@H](CC(=O)O)NC(=O)[C@H](CCCNC(=N)N)NC(=O)[C@H](CCC(N)=O)NC(=O)[C@H](C)NC(=O)[C@@H](NC(=O)[C@H](CC(C)C)NC(=O)[C@H](Cc1c[nH]cn1)NC(=O)[C@H](Cc1c[nH]cn1)NC(=O)CCCC[C@@H]1SC[C@@H]2NC(=O)N[C@@H]21)C(C)C)[C@@H](C)CC)C(=O)O` [noradrenaline transporter] (Biotin-HHLVAQRDIRQFQLQHWLAI-OH; C-terminus assumed), the Classification in experiment [3] is recorded as 1 (A450 nm 0-1). Consider “ISGTPTSTMVHGMTSSSSVV (Biotin-ISGTPTSTMVHGMTSSSSVV) [Clasp-2]”, for which the Classification with NeDLG (PDZ Domain 1, 2) is on record as 2 (A450 nm 1-2).
